Test results from patent US11576380B2 (priority 2017, dated 2023).
Read-outs that look alike come from different tables or passages of the source.

What was measured:
Pyricularia oryzae = test: microbe, parasite or virus in culture; format: cell-based; conditions: for benzovindiflupyr (B) inhibition (%): Table 1; for benzovindiflupyr (B) inhibition (%) / azoxystrobin (B) inhibition (%): 72 hours; for azoxystrobin (B) inhibition (%): Table 2
Mycosphaerella arachidis = test: Liquid culture test in well plates, Mycosphaerella arachidis syn. Cercospora arachidicola (peanut brown leaf spot), Example 6; format: cell-based; conditions: Table 4, approximately 5-6 days
Procedure: The compositions according to the invention are tested for their biological (fungicidal) activity as dimethylsulfoxide (DMSO) solutions using one or more of the following protocols (Examples 2 to 8). A standard description of the liquid culture tests is provided in Example 1.
Mycelia fragments or conidia suspensions of a fungus, prepared either freshly from liquid cultures of the fungus or from cryogenic storage, are directly mixed into nutrient broth. DMSO solutions of the test compound (max. 10 mg/mL) is diluted with 0.025% Tween20 by factor 50 and 10 μL of this solution is pipetted into a microtiter plate (96-well format). The nutrient broth containing the fungal spores/mycelia fragments is then added to give an end concentration of the tested compound. The test plates are incubated in the dark at 24° C. and 96% relative humidity (rh). The inhibition of fungal growth is determined photometrically and visually after 3-7 days, depending on the pathosystem, and percent antifungal activity relative to the untreated check is calculated.
Conidia of the fungus from cryogenic storage were directly mixed into nutrient broth (PDB potato dextrose broth). After placing a DMSO solution of the test compositions into a microtiter plate (96-well format), the nutrient broth containing the fungal spores was added. The test plates were incubated at 24° C. and the inhibition of growth was determined photometrically after approximately 5-6 days.

## Cn1cc(C(=O)Nc2cccc3c2[C@@H]2CC[C@H]3C2=C(Cl)Cl)c(C(F)F)n1 (racemic) [benzovindiflupyr]
Pyricularia oryzae; benzovindiflupyr alone 0.0125 ppm
  benzovindiflupyr (B) inhibition (%): 20%
Pyricularia oryzae; benzovindiflupyr alone 0.0250 ppm
  benzovindiflupyr (B) inhibition (%): 50%
Pyricularia oryzae; benzovindiflupyr alone 0.0500 ppm
  benzovindiflupyr (B) inhibition (%): 70%
Pyricularia oryzae; benzovindiflupyr alone 0.1000 ppm
  benzovindiflupyr (B) inhibition (%): 90%

## CO/C=C(/C(=O)OC)c1ccccc1Oc1cc(Oc2ccccc2C#N)ncn1 [azoxystrobin]
Pyricularia oryzae; azoxystrobin alone 0.0250 ppm
  azoxystrobin (B) inhibition (%): 0%
Pyricularia oryzae; azoxystrobin alone 0.0500 ppm
  azoxystrobin (B) inhibition (%): 0%
Pyricularia oryzae; azoxystrobin alone 0.1000 ppm
  azoxystrobin (B) inhibition (%): 0%
Pyricularia oryzae; azoxystrobin alone 0.2000 ppm
  azoxystrobin (B) inhibition (%): 0%

## N#Cc1c(Cl)c(Cl)c(Cl)c(C#N)c1Cl [chlorothalonil]
Pyricularia oryzae; Pyricularia oryzae, 72 h, read-out: chlorothalonil (B) inhibition (%), Table 3, chlorothalonil alone 0.2500 ppm
  inhibition at 0.25 ppm: 0%
Pyricularia oryzae; Pyricularia oryzae, 72 h, read-out: chlorothalonil (B) inhibition (%), Table 3, chlorothalonil alone 0.5000 ppm
  inhibition at 0.5 ppm: 0%
Pyricularia oryzae; Pyricularia oryzae, 72 h, read-out: chlorothalonil (B) inhibition (%), Table 3, chlorothalonil alone 1.0000 ppm
  inhibition at 1 ppm: 20%

## COc1ccnc(C(=O)N[C@@H](C)C(=O)O[C@@H](C)C(c2ccc(F)cc2)c2ccc(F)cc2)c1OC(C)=O [florylpicoxamid, (1S)-2,2-bis(4-fluorophenyl)-1-methylethyl N-{[3-(acetyloxy)-4-methoxy-2-pyridyl]carbonyl}-L-alaninate]
Mycosphaerella arachidis; Mycosphaerella arachidis, florylpicoxamid alone 0.0250 ppm
  inhibition at 0.025 ppm: 4%
Mycosphaerella arachidis; Mycosphaerella arachidis, florylpicoxamid alone 0.0500 ppm
  inhibition at 0.05 ppm: 15%
Mycosphaerella arachidis; Mycosphaerella arachidis, florylpicoxamid alone 0.1000 ppm
  inhibition at 0.1 ppm: 38%
Pyricularia oryzae; Pyricularia oryzae, 72 h, read-out: florylpicoxamid (A) inhibition (%), Table 1, florylpicoxamid alone 0.0031 ppm
  inhibition at 0.0031 ppm: 0%
Pyricularia oryzae; Pyricularia oryzae, 72 h, read-out: florylpicoxamid (A) inhibition (%), Table 1, florylpicoxamid alone 0.0063 ppm
  inhibition at 0.0063 ppm: 0%
Pyricularia oryzae; Pyricularia oryzae, 72 h, read-out: florylpicoxamid (A) inhibition (%), Table 1, florylpicoxamid alone 0.0125 ppm
  inhibition at 0.0125 ppm: 0%
Pyricularia oryzae; Pyricularia oryzae, 72 h, read-out: florylpicoxamid (A) inhibition (%), Table 1, florylpicoxamid alone 0.0250 ppm
  inhibition at 0.025 ppm: 0%
Pyricularia oryzae; Pyricularia oryzae, 72 h, read-out: florylpicoxamid (A) inhibition (%), Table 1, florylpicoxamid alone 0.0500 ppm
  inhibition at 0.05 ppm: 0%
Pyricularia oryzae; Pyricularia oryzae, 72 h, read-out: florylpicoxamid (A) inhibition (%), Table 1, florylpicoxamid alone 0.1000 ppm
  inhibition at 0.1 ppm: 20%
Pyricularia oryzae; Pyricularia oryzae, 72 h, read-out: florylpicoxamid (A) inhibition (%), Table 2, florylpicoxamid alone 0.1000 ppm
  inhibition at 0.1 ppm: 20%
Pyricularia oryzae; Pyricularia oryzae, 72 h, read-out: florylpicoxamid (A) inhibition (%), Table 2, florylpicoxamid alone 0.2000 ppm
  inhibition at 0.2 ppm: 50%
Pyricularia oryzae; Pyricularia oryzae, 72 h, read-out: florylpicoxamid (A) inhibition (%), Table 3, florylpicoxamid alone 0.0250 ppm
  inhibition at 0.025 ppm: 0%
Pyricularia oryzae; Pyricularia oryzae, 72 h, read-out: florylpicoxamid (A) inhibition (%), Table 3, florylpicoxamid alone 0.0500 ppm
  inhibition at 0.05 ppm: 20%
Pyricularia oryzae; Pyricularia oryzae, 72 h, read-out: florylpicoxamid (A) inhibition (%), Table 3, florylpicoxamid alone 0.1000 ppm
  inhibition at 0.1 ppm: 30%
Pyricularia oryzae; Pyricularia oryzae, 72 h, read-out: florylpicoxamid (A) inhibition (%), Table 3, florylpicoxamid alone 0.2000 ppm
  inhibition at 0.2 ppm: 60%

## CON(C(=O)c1cn(C)nc1C(F)F)C(C)Cc1c(Cl)cc(Cl)cc1Cl (stereo not drawn) [pydiflumetofen]
Mycosphaerella arachidis; pydiflumetofen alone 0.0025 ppm
  pydiflumetofen (B) inhibition (%): 1%
Mycosphaerella arachidis; pydiflumetofen alone 0.0050 ppm
  pydiflumetofen (B) inhibition (%): 0%
Mycosphaerella arachidis; pydiflumetofen alone 0.0100 ppm
  pydiflumetofen (B) inhibition (%): 28%
Mycosphaerella arachidis; pydiflumetofen alone 0.0200 ppm
  pydiflumetofen (B) inhibition (%): 70%
